Experimental data from patent publication US8632767B2, “3-[1-(3-haloalkyl)triazolyl]phenyl sulphide derivatives as acaricides and insecticides” (Bayer Intellectual Property GmbH, priority 2009, dated 2014).

What was measured:
[1] = test system: greenhouse red spidermite (Tetranychus urticae); test: Tetranychus test; OP resistant (TETRUR spray treatment), Example 5, comparison with prior art; assay type: in vivo; conditions: 20 g/ha, 6d
Description: (§1) Solvents: 78.0 parts by weight of acetone • • 1.5 parts by weight of dimethylformamide Emulsifier: 0.5 part by weight of alkylaryl polyglycol ether An appropriate preparation of active compound is prepared by mixing 1 part by weight of active compound with the stated amounts of solvent and emulsifier and diluting the concentrate with emulsifier-containing water to the desired concentration. Leaf discs of bean (Phaseolus vulgaris) infested by all stages of the greenhouse red spidermite (Tetranychus urticae) are sprayed with a preparation of active compound at the desired concentration. After the desired time, the effect in % is determined. Here, 100% means that all of the mites have been killed; 0% means that no mites have been killed.

Boophilus microplus = Boophilus microplus test (BOOPMI injection); assay type: in vivo; conditions: Rhipicephalus microplus, 168 h; 20 μg/animal, injection into abdomen, after 7 days; read-out: activity (no fertile eggs laid)
Description: Solvent: Dimethyl Sulphoxide An appropriate preparation of active compound is prepared by mixing 10 mg of active compound with 0.5 ml of solvent and diluting the concentrate with solvent to the desired concentration. The solution of active compound is injected into the abdomen (Boophilus microplus) and the animals are transferred into dishes and kept in a controlled atmosphere. The activity is assessed on the basis of deposition of fertile eggs. After 7 days, the effect in % is determined. Here, 100% means that none of the ticks has laid fertile eggs.

[2] = test system: greenhouse red spidermite (Tetranychus urticae); test: Tetranychus test; OP resistant (TETRUR spray treatment), Example 3; assay type: in vivo; conditions: foliar, 144 h, spray on bean leaf discs, after 6 days, read-out: effect (mites killed)
Description: as §1, with “6 days,” for “the desired time,”

[3] = log P by HPLC on reversed-phase C18, LC-MS, pH 2.7, formic acid (HCOOH); assay type: physicochemical; conditions: reversed-phase C18 HPLC column; HPLC C18, pH 2.7, 0.1% aqueous formic acid/acetonitrile
Description: (§2) The log P values reported in the table above and in the preparation examples were determined in accordance with EEC Directive 79/831 Annex V.A8 by HPLC (High Performance Liquid Chromatography) on reversed-phase columns (C18), with the following methods: ^[b] The determination is made by LC-MS in the acid range at pH 2.7 with 0.1% aqueous formic acid and acetonitrile (containing 0.1% formic acid) as eluents; linear gradient from 10% acetonitrile to 95% acetonitrile. Calibration took place with unbranched alkan-2-ones (having 3 to 16 carbon atoms) of known log P values (log P values determined from the retention times by linear interpolation between two successive alkanones).

[4] = log P by HPLC on reversed-phase C18, pH 2.3, phosphoric acid (H3PO4); assay type: physicochemical; conditions: reversed-phase C18 HPLC column; HPLC C18, pH 2.3, 0.1% aqueous phosphoric acid/acetonitrile
Description: as §2, with “^[a]” for “^[b]”, “made” for “made by LC-MS”, “2.3” for “2.7”, “phosphoric” for “formic”, “acetonitrile” for “acetonitrile (containing 0.1% formic acid)”

Meloidogyne incognita = Meloidogyne incognita test (MELGIN); assay type: in vivo; conditions: 20 ppm, lettuce in sand, after 14 days
Description: Solvents: 78.0 parts by weight of acetone • • 1.5 parts by weight of dimethylformamide Emulsifier: 0.5 part by weight of alkylaryl polyglycol ether An appropriate preparation of active compound is prepared by mixing 1 part by weight of active compound with the stated amounts of solvent and emulsifier and diluting the concentrate with water to the desired concentration. Pots are filled with sand, solution of active compound, meloidogyne incognita egg/larvae suspension, and lettuce seeds. The lettuce seeds germinate and the plants develop. On the roots, the galls develop. After 14 days, the nematicidal effect is determined from the gall formation, in %. Here, 100% means that no galls were found; 0% means that the number of galls on the treated plants corresponds to that for the untreated control.

[5] = test system: larvae of the mustard beetle (Phaedon cochleariae); test: Phaedon test (PHAECO spray treatment); assay type: in vivo; conditions: foliar, 168 h, spray on Chinese cabbage leaf discs, after 7 days, read-out: effect (beetle larvae killed)
Description: Solvents: 78.0 parts by weight of acetone • • 1.5 parts by weight of dimethylformamide Emulsifier: 0.5 part by weight of alkylaryl polyglycol ether An appropriate preparation of active compound is prepared by mixing 1 part by weight of active compound with the stated amounts of solvent and emulsifier and diluting the concentrate with emulsifier-containing water to the desired concentration. Leaf discs of Chinese cabbage (Brassica pekinensis) are sprayed with a preparation of active compound at the desired concentration and, after they have dried, are populated with larvae of the mustard beetle (Phaedon cochleariae). After 7 days, the effect in % is determined. Here, 100% means that all of the beetle larvae have been killed; 0% means that no beetle larvae have been killed.

[6] = log P by HPLC on reversed-phase C18, eluent variant not stated; assay type: physicochemical; conditions: reversed-phase C18 HPLC column
Description: as §2, with “methods:” for “methods: ^[b] The determination is made by LC-MS in the acid range at pH 2.7 with 0.1% aqueous formic acid and acetonitrile (containing 0.1% formic acid) as eluents; linear gradient from 10% acetonitrile to 95% acetonitrile.”

For `Cc1cc(C)c(-n2cnc(C(F)(F)F)n2)cc1SCC(F)(F)F` [VI-297, reference compound], which “% effect after application” value [1] is on record?
Its value is 70 6d %.

Which pest or weed control at 0.02 mg (Boophilus microplus) does the source give for `Cc1cc(C)c(-n2cnc(C(F)F)n2)cc1SCC(F)F` [I-A-1] here?
Its pest or weed control at 0.02 mg is 100%.

What about the pest or weed control at 100 g/ha [2] of the same molecule?
The pest or weed control at 100 g/ha was 100%.

And the chromatographic logP [3]?
Its chromatographic logP is 3.02.

And the chromatographic logP [4]?
Its chromatographic logP is 3.06.

With `Cc1cc(F)c(-n2cnc(C(F)F)n2)cc1[S+]([O-])CC(F)(F)F` (stereo not shown) [I-A-15] as the molecule, how does the “nematicidal effect (gall formation)” value (Meloidogyne incognita) read?
The value was 90%.

And the pest or weed control at 500 g/ha [2]?
Its pest or weed control at 500 g/ha is 100%.

What about the chromatographic logP [3] of the same molecule?
Its chromatographic logP is 2.12.

What about the pest or weed control at 500 g/ha [5] of the same molecule?
The pest or weed control at 500 g/ha was 100%.

With `Cc1cc(C)c(-n2cnc(C(F)F)n2)cc1SCC(F)(F)F` [I-A-2, 3-(Difluoromethyl)-1-{2,4-dimethyl-5-[(2,2,2-trifluoroethyl)sulphanyl]phenyl}-1H-1,2,4-triazole] as the molecule, how does the “nematicidal effect (gall formation)” value (Meloidogyne incognita) read?
Its value is 100%.

And the pest or weed control at 0.02 mg (Boophilus microplus)?
The pest or weed control at 0.02 mg was 100%.

What about the pest or weed control at 500 g/ha [2] of the same molecule?
The pest or weed control at 500 g/ha was 100%.

What about the chromatographic logP [3] of the same molecule?
Its chromatographic logP is 3.33.

And the “% effect after application” value [1]?
The value was 100 6d %.

Which results are given for `FC(F)c1ncn(-c2ccc(Cl)c(SCC(F)(F)F)c2)n1` [I-A-9]?
nematicidal effect (gall formation) (Meloidogyne incognita): 100%; pest or weed control at 0.02 mg (Boophilus microplus): 100%; pest or weed control at 100 g/ha [2]: 100%; chromatographic logP [3]: 3.28; pest or weed control at 500 g/ha [5]: 100%

With `Cc1ccc(NNC(=O)C(F)F)c(C)c1` [N′-(2,4-Dimethylphenyl)-2,2-difluoroacetohydrazide] as the molecule, how does the chromatographic logP [6] read?
The chromatographic logP was 1.8.

For `Cc1cc(C)c([S+]([O-])CC(F)(F)F)cc1-n1cnc(C(F)F)n1` (stereo not shown) [I-A-4, 3-(Difluoromethyl)-1-{2,4-dimethyl-5-[(2,2,2-trifluoroethyl)sulphinyl]phenyl}-1H-1,2,4-triazole], which “nematicidal effect (gall formation)” value (Meloidogyne incognita) is on record?
The value was 100%.

What about the pest or weed control at 0.02 mg (Boophilus microplus) of the same molecule?
The pest or weed control at 0.02 mg was 100%.

What about the pest or weed control at 100 g/ha [2] of the same molecule?
Its pest or weed control at 100 g/ha is 100%.

And the chromatographic logP [3]?
Its chromatographic logP is 2.19.

Which “nematicidal effect (gall formation)” value (Meloidogyne incognita) does the source give for `Cc1ccc(-n2cnc(C(F)F)n2)cc1[S+]([O-])CC(F)(F)F` (stereo not shown) [I-A-16] here?
The value was 100%.

And the pest or weed control at 100 g/ha [2]?
Its pest or weed control at 100 g/ha is 100%.

What about the chromatographic logP [3] of the same molecule?
Its chromatographic logP is 2.1.

What about the pest or weed control at 500 g/ha [5] of the same molecule?
The pest or weed control at 500 g/ha was 100%.

What does the source list for `Cc1cc(F)c(-n2cnc(C(F)F)n2)cc1SCC(F)(F)F` [I-A-30]?
nematicidal effect (gall formation) (Meloidogyne incognita): 90%; pest or weed control at 100 g/ha [2]: 100%; chromatographic logP [3]: 3.28; pest or weed control at 500 g/ha [5]: 100%

Which “nematicidal effect (gall formation)” value (Meloidogyne incognita) does the source give for `[O-][S+](CC(F)(F)F)c1cc(-n2cnc(C(F)F)n2)ccc1Cl` (stereo not shown) [I-A-27] here?
The value was 100%.

And the pest or weed control at 0.02 mg (Boophilus microplus)?
Its pest or weed control at 0.02 mg is 100%.

And the pest or weed control at 100 g/ha [2]?
Its pest or weed control at 100 g/ha is 100%.

What about the chromatographic logP [3] of the same molecule?
The chromatographic logP was 2.39.

And the pest or weed control at 500 g/ha [5]?
Its pest or weed control at 500 g/ha is 100%.
